According to patent US20140163023A1, “DIHYDROPYRROLO PYRIMIDINE DERIVATIVES AS MTOR INHIBITORS” (Cellzome Limited, priority 2011, published 2014):

Experiments:
mTOR = molecular target: T1, mTOR (Homo sapiens, UniProt P42345); assay: mTOR kinobeads assay (competition binding in cell lysate, dot blot detection); details: 1:1 mix of Jurkat and Ramos cell lysates, read-out: Inhibition values (IC50 in μM) as determined in the kinobeads assay, mTor
T1 construct: endogenous in cells; host or cells: Jurkat (ATCC TIB-152, clone E6-1) and Ramos (ATCC CRL-1596), 1:1 lysate mix
Experimental: Determination of the Effect of the Compounds According to the Invention on mTOR
(§1) The compounds of the present invention as described were tested in the mTOR kinobeads assay as described below. Briefly, test compounds (at various concentrations) and the affinity matrix (1:1 mixture of beads with immobilized phenylthiazole ligand 1 and beads with immobilized phenylmorpholin-chromen ligand; WO 2009/098021) were added to cell lysate aliquots and allowed to bind to the proteins in the lysate sample. After the incubation time the beads with captured proteins were separated from the lysate. Bound proteins were then eluted and the presence of mTOR, PI3Kα, PI3Kβ, PI3Kγ, PI3Kδ and DNA-dependent protein kinase (DNA-PK) was detected and quantified using a specific antibody in a dot blot procedure and the Odyssey infrared detection system. Dose response curves for individual kinases were generated and IC50 values calculated. Kinobeads assays for PI3 kinases (WO-A 2008/015013) and for kinase selectivity profiling (WO 2009/098021) have been previously described.
(§2) Washing of Affinity Matrix
(§3) The affinity matrix was washed two times with 15 ml of 1×DP buffer containing 0.2% NP40 (IGEPAL® CA-630, Sigma, #13021) and then resupended in 5.5 ml of 1×DP buffer containing 0.2% NP40 (10% beads slurry).
(§4) 5×DP buffer: 250 mM Tris-HCl pH 7.4, 25% Glycerol, 7.5 mM MgCl2, 750 mM NaCl, 5 mM Na3VO4, filter the 5×-lysis buffer through 0.22 μm filter and store in aliquots at −80° C. The 5×DP buffer is diluted to 1×DP buffer containing 1 mM DTT and 25 mM NaF.
(§5) Preparation of Test Compounds
(§6) Stock solutions of test compounds were prepared in DMSO. In a 96 well plate 30 μl solution of diluted test compounds at 5 mM in DMSO were prepared. Starting with this solution a 1:3 dilution series (9 steps) was prepared. For control experiments (no test compound) a buffer containing 2% DMSO was used. Compound Pi-103 (Calbiochem catalogue number 528100) served as a positive control.
(§7) Cell Culture and Preparation of Cell Lysates
(§8) Jurkat cells (ATCC catalogue number TIB-152 Jurkat, clone E6-1) and Ramos cells (ATCC number CRL-1596) were grown in 1 litre Spinner flasks (Integra Biosciences, #182101) in suspension in RPMI 1640 medium (Invitrogen, #21875-034) supplemented with 10% Fetal Bovine Serum (Invitrogen) at a density between 0.15×10^6 and 1.2×10^6 cells/ml. Cells were harvested by centrifugation, washed once with 1×PBS buffer (Invitrogen, #14190-094) and cell pellets were frozen in liquid nitrogen and subsequently stored at −80° C.
(§9) Cells were homogenized in a Potter S homogenizer in lysis buffer: 50 mM Tris-HCl, 0.8% NP40, 5% glycerol, 150 mM NaCl, 1.5 mM MgCl2, 25 mM NaF, 1 mM sodium vanadate, 1 mM DTT, pH 7.5. One complete EDTA-free tablet (protease inhibitor cocktail, Roche Diagnostics, 1873580) per 25 ml buffer was added. The material was dounced 10 times using a mechanized POTTER S, transferred to 50 ml falcon tubes, incubated for 30 minutes on ice and spun down for 10 min at 20,000 g at 4° C. (10,000 rpm in Sorvall SLA600, precooled). The supernatant was transferred to an ultracentrifuge (UZ)-polycarbonate tube (Beckmann, 355654) and spun for 1 hour at 100.000 g at 4° C. (33.500 rpm in Ti50.2, precooled). The supernatant was transferred again to a fresh 50 ml falcon tube, the protein concentration was determined by a Bradford assay (BioRad) and samples containing 50 mg of protein per aliquot were prepared. The samples were immediately used for experiments or frozen in liquid nitrogen and stored frozen at −80° C.
(§10) Cell lysate (approximately 50 mg protein per plate) was thawed in a water bath at room temperature and then kept on ice. To the thawed cell lysate 1×DP 0.8% NP40 buffer containing protease inhibitors (1 tablet for 25 ml buffer; EDTA-free protease inhibitor cocktail; Roche Diagnostics 1873580) was added in order to reach a final protein concentration of 5 mg/ml total protein. For the kinobeads experiment a 1:1 mix of Jurkat and Ramos cell lysates was used. […]

PI3Kα = molecular target: T2, PI3Kα (Homo sapiens, UniProt P42336); assay: kinobeads assay, PI3Kα; format: binding; details: 1:1 mix of Jurkat and Ramos cell lysates, read-out: Inhibition values (IC50 in μM) as determined in the kinobeads assay, PI3Kα
T2 construct: endogenous in cells; host or cells: Jurkat (ATCC TIB-152, clone E6-1) and Ramos (ATCC CRL-1596), 1:1 lysate mix
Experimental: as §1, §2, §3, §4, §5, §6, §7, §8, §9
as §10, with “used. The diluted cell lysate was stored on ice.” for “used.”

PI3Kβ = molecular target: T3, PI3Kβ (Homo sapiens, UniProt P42338); assay: kinobeads assay, PI3Kβ; format: binding; details: 1:1 mix of Jurkat and Ramos cell lysates, read-out: Inhibition values (IC50 in μM) as determined in the kinobeads assay, PI3Kβ
T3 construct: endogenous in cells; host or cells: Jurkat (ATCC TIB-152, clone E6-1) and Ramos (ATCC CRL-1596), 1:1 lysate mix
Experimental: as §1, §2, §3, §4, §5, §6, §7, §8, §9
as §10, with “used. The diluted cell lysate was stored on ice.” for “used.”

PI3Kδ = molecular target: T4, PI3Kδ (Homo sapiens, UniProt O00329); assay: kinobeads assay, PI3Kδ; format: binding; details: 1:1 mix of Jurkat and Ramos cell lysates, read-out: Inhibition values (IC50 in μM) as determined in the kinobeads assay, PI3Kδ
T4 construct: endogenous in cells; host or cells: Jurkat (ATCC TIB-152, clone E6-1) and Ramos (ATCC CRL-1596), 1:1 lysate mix
Experimental: as §1, §2, §3, §4, §5, §6, §7, §8, §9
as §10, with “used. The diluted cell lysate was stored on ice.” for “used.”

PI3Kγ = molecular target: T5, PI3Kγ (Homo sapiens, UniProt P48736); assay: kinobeads assay, PI3Kγ; format: binding; details: 1:1 mix of Jurkat and Ramos cell lysates, read-out: Inhibition values (IC50 in μM) as determined in the kinobeads assay, PI3Kγ
T5 construct: endogenous in cells; host or cells: Jurkat (ATCC TIB-152, clone E6-1) and Ramos (ATCC CRL-1596), 1:1 lysate mix
Experimental: as §1, §2, §3, §4, §5, §6, §7, §8, §9
as §10, with “used. The diluted cell lysate was stored on ice.” for “used.”

[1] = molecular target: T6, DNA-dependent protein kinase (DNA-PK) (Homo sapiens, UniProt P78527); assay: kinobeads assay, DNA-PK; format: binding; details: 1:1 mix of Jurkat and Ramos cell lysates, read-out: Inhibition values (IC50 in μM) as determined in the kinobeads assay, DNA-PK
T6 construct: endogenous in cells; host or cells: Jurkat (ATCC TIB-152, clone E6-1) and Ramos (ATCC CRL-1596), 1:1 lysate mix
Experimental: as §1, §2, §3, §4, §5, §6, §7, §8, §9
as §10, with “used. The diluted cell lysate was stored on ice.” for “used.”

T6 sequence (P78527 whole entry): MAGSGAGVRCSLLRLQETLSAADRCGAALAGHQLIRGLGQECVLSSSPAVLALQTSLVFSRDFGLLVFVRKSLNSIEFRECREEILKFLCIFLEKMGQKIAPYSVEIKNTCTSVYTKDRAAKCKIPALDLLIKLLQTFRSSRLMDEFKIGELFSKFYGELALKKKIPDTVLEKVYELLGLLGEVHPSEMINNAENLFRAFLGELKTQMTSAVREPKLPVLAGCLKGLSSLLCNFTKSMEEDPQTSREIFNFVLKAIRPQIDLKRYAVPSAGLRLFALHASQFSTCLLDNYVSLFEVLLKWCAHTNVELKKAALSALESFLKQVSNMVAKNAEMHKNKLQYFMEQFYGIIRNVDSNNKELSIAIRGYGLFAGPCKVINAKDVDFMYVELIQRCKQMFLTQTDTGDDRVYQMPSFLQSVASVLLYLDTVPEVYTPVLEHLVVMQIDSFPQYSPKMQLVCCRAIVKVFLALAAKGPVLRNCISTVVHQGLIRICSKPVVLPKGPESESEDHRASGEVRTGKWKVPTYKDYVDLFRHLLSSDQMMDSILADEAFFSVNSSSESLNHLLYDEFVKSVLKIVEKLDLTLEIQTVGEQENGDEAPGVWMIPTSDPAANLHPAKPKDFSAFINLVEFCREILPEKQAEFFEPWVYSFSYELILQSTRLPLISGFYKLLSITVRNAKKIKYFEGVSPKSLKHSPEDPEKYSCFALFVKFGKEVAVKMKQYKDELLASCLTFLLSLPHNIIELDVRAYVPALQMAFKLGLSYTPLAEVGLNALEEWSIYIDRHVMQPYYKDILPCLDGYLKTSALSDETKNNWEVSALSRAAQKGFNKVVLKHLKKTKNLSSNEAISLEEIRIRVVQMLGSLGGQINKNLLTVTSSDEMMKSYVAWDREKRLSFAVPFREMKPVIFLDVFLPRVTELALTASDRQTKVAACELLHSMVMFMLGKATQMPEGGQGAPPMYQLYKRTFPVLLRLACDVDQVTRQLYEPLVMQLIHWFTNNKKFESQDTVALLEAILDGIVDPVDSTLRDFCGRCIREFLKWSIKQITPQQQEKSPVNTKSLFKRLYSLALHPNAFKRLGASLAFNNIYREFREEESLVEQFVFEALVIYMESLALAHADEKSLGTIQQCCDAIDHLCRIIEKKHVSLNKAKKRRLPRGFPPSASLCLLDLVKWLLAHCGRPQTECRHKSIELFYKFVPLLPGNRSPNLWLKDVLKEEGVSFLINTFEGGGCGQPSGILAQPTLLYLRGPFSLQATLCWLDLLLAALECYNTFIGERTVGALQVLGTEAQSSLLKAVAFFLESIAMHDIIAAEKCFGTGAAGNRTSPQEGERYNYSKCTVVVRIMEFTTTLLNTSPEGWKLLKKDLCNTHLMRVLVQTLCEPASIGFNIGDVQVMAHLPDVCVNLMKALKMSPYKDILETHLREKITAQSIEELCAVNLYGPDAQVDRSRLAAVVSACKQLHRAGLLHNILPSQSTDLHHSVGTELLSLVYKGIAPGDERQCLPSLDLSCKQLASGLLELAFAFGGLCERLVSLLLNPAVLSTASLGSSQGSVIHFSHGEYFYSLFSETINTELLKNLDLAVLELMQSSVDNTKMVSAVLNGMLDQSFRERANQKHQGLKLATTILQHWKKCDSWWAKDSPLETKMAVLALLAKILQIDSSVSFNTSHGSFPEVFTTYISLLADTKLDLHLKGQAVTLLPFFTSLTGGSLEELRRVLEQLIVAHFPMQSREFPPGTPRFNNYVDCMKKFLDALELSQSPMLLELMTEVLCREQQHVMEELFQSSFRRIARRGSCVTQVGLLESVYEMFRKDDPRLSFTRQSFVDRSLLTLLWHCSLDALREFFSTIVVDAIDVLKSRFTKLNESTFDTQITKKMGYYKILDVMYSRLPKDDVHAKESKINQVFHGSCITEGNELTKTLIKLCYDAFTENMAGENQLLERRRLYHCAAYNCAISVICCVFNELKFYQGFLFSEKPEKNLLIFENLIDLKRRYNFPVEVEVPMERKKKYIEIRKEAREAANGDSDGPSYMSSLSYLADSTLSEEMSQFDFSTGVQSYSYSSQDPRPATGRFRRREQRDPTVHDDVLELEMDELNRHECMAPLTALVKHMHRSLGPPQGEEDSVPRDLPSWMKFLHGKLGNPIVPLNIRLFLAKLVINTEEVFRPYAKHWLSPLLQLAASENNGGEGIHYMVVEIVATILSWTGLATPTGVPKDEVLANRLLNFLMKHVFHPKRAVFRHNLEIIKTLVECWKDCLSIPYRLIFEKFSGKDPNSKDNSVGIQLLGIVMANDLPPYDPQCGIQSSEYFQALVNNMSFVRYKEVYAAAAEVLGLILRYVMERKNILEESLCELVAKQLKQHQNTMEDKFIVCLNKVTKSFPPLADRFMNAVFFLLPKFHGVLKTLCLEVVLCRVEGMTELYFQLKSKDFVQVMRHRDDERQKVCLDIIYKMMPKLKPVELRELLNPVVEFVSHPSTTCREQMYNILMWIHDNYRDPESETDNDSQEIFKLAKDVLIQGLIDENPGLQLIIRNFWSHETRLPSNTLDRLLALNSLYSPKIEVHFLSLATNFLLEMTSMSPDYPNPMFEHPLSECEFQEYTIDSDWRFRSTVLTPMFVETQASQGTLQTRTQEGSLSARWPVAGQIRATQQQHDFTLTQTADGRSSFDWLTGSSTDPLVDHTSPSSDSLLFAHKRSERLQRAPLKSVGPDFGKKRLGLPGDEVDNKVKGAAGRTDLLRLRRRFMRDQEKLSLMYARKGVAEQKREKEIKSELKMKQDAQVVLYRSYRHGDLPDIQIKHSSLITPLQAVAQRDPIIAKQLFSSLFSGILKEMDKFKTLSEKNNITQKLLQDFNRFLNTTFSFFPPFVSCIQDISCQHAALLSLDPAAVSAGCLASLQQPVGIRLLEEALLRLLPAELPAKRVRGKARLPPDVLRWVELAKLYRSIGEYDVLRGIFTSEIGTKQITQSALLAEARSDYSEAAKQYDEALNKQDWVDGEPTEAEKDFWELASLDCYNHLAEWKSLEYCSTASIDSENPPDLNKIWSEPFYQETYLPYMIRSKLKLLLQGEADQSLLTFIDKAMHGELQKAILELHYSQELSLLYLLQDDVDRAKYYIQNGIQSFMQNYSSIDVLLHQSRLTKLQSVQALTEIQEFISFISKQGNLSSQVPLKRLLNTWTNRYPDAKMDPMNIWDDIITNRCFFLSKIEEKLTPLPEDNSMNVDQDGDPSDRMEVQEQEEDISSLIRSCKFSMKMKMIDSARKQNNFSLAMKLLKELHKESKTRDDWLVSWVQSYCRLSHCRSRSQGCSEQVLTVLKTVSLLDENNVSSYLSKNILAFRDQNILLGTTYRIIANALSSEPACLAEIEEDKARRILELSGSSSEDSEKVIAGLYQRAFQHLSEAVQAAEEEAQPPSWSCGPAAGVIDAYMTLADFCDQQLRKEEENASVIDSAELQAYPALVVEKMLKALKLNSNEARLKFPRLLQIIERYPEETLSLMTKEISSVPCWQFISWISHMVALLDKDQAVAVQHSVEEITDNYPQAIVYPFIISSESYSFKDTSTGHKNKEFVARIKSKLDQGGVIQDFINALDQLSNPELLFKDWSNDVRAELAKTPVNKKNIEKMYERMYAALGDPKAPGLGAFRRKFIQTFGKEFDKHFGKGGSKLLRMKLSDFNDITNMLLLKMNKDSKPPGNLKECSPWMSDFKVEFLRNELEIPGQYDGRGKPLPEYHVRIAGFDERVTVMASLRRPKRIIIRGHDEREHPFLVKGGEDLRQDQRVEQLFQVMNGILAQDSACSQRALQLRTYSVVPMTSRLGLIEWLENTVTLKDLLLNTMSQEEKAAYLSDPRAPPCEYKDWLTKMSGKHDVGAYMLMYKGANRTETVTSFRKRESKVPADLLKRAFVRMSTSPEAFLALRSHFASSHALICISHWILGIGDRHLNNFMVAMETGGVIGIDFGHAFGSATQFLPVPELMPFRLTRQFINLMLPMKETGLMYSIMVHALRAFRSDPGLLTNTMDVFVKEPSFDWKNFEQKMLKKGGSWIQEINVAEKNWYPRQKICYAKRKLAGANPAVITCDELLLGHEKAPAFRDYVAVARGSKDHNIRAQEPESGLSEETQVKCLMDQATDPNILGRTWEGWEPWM

| SMILES | IC50 (mTOR) [µM] | IC50 (PI3Kα) [µM] | IC50 (PI3Kβ) [µM] | IC50 (PI3Kδ) [µM] | IC50 (PI3Kγ) [µM] | IC50 [1] [µM] |
| --- | --- | --- | --- | --- | --- | --- |
| O=C(Nc1ccc(-c2nc(N3CC4CCC(C3)O4)nc3c2CNC3)cc1)NC1CC1 [Example 18, 1-(4-(2-(8-oxa-3-azabicyclo[3.2.1]octan-3-yl)-6,7-dihydro-5H-pyrrolo[3,4-d]pyrimidin-4-yl)phenyl)-3-cyclopropylurea] | 0.1 to 1 | > 100 | > 100 | > 100 | > 100 | 10 to 100 |
| C[C@H]1COCCN1c1nc2c(c(-c3ccc(NC(=O)NCCO)cc3)n1)CNC2 [Example 19, (S)-1-(2-hydroxyethyl)-3-(4-(2-(3-methylmorpholino)-6,7-dihydro-5H-pyrrolo[3,4-d]pyrimidin-4-yl)phenyl)urea] | ≤ 0.1 | 1 to 10 | 10 to 100 | 10 to 100 | 1 to 10 | 10 to 100 |
| C[C@H]1COCCN1c1nc2c(c(-c3ccc(NC(=O)NC4CC4)cc3)n1)CN(C(=O)CN(C)C)C2 [Example 20, (S)-1-cyclopropyl-3-(4-(6-(2-(dimethylamino)acetyl)-2-(3-methylmorpholino)-6,7-dihydro-5H-pyrrolo[3,4-d]pyrimidin-4-yl)phenyl)urea] | 1 to 10 | > 100 | 10 to 100 | 10 to 100 | > 100 | > 100 |
| C[C@H]1COCCN1c1nc2c(c(-c3ccc(NC(=O)NC4CC4)cc3)n1)CN(C(=O)CCN(C)C)C2 [Example 21, (S)-1-cyclopropyl-3-(4-(6-(3-(dimethylamino)propanoyl)-2-(3-methylmorpholino)-6,7-dihydro-5H-pyrrolo[3,4-d]pyrimidin-4-yl)phenyl)urea] | 1 to 10 | > 100 | 10 to 100 | 10 to 100 | > 100 | > 100 |
| C[C@H]1COCCN1c1nc2c(c(-c3ccc(NC(=O)NC4CC4)cc3)n1)CN(C(=O)CO)C2 [Example 22, (S)-1-cyclopropyl-3-(4-(6-(2-hydroxyacetyl)-2-(3-methylmorpholino)-6,7-dihydro-5H-pyrrolo[3,4-d]pyrimidin-4-yl)phenyl)urea] | 0.1 to 1 | 10 to 100 | 10 to 100 | 1 to 10 | 10 to 100 | > 100 |
| C[C@H]1COCCN1c1nc2c(c(-c3ccc(NC(=O)NC4CC4)cc3)n1)CN(C(=O)CC#N)C2 [Example 23, (S)-1-(4-(6-(2-cyanoacetyl)-2-(3-methylmorpholino)-6,7-dihydro-5H-pyrrolo[3,4-d]pyrimidin-4-yl)phenyl)-3-cyclopropylurea] | 0.1 to 1 | 10 to 100 | 10 to 100 | 10 to 100 | > 100 | > 100 |
| COCC(=O)N1Cc2nc(N3CCOC[C@@H]3C)nc(-c3ccc(NC(=O)NC4CC4)cc3)c2C1 [Example 27, (S)-1-cyclopropyl-3-(4-(6-(2-methoxyacetyl)-2-(3-methylmorpholino)-6,7-dihydro-5H-pyrrolo[3,4-d]pyrimidin-4-yl)phenyl)urea] | 1 to 10 | 10 to 100 | 10 to 100 | 10 to 100 | > 100 | > 100 |

Results, then the molecule that gave them:

| IC50 (mTOR) [µM] | IC50 (PI3Kα) [µM] | IC50 (PI3Kβ) [µM] | IC50 (PI3Kδ) [µM] | IC50 (PI3Kγ) [µM] | IC50 [1] [µM] | SMILES |
| --- | --- | --- | --- | --- | --- | --- |
| 0.1 to 1 | > 100 | > 100 | > 100 | > 100 | > 100 | C[C@H]1COCCN1c1nc2c(c(-c3ccc(NC(=O)NC4CC4)cc3)n1)CN(S(C)(=O)=O)C2 [Example 15, (S)-1-cyclopropyl-3-(4-(2-(3-methylmorpholino)-6-(methylsulfonyl)-6,7-dihydro-5H-pyrrolo[3,4-d]pyrimidin-4-yl)phenyl)urea] |
| 1 to 10 | > 100 | > 100 | > 100 | > 100 | > 100 | C[C@H]1COCCN1C(=O)Nc1ccc(-c2nc(N3CCOC[C@@H]3C)nc3c2CNC3)cc1 [Example 16, (S)-3-methyl-N-(4-(2-((S)-3-methylmorpholino)-6,7-dihydro-5H-pyrrolo[3,4-d]pyrimidin-4-yl)phenyl)morpholine-4-carboxamide] |
| 1 to 10 | 10 to 100 | > 100 | > 100 | > 100 | > 100 | CCNC(=O)N1Cc2nc(N3CCOC[C@@H]3C)nc(-c3ccc(NC(=O)NC4CC4)cc3)c2C1 [Example 17, (S)-4-(4-(3-cyclopropylureido)phenyl)-N-ethyl-2-(3-methylmorpholino)-5H-pyrrolo[3,4-d]pyrimidine-6(7H)-carboxamide] |
| 1 to 10 | 10 to 100 | 10 to 100 | 10 to 100 | 10 to 100 | > 100 | C[C@H]1COCCN1c1nc2c(c(-c3ccc(NC(=O)Nc4ccncc4)cc3)n1)CNC2 [Example 24, (S)-1-(4-(2-(3-methylmorpholino)-6,7-dihydro-5H-pyrrolo[3,4-d]pyrimidin-4-yl)phenyl)-3-(pyridin-4-yl)urea] |
| 0.1 to 1 | 1 to 10 | 1 to 10 | 10 to 100 | 1 to 10 | > 100 | C[C@H]1COCCN1c1nc2c(c(-c3ccc(NC(=O)Nc4cccc(O)n4)cc3)n1)CNC2 [Example 25, (S)-1-(6-hydroxypyridin-2-yl)-3-(4-(2-(3-methylmorpholino)-6,7-dihydro-5H-pyrrolo[3,4-d]pyrimidin-4-yl)phenyl)urea] |
| 0.1 to 1 | > 100 | 10 to 100 | 10 to 100 | > 100 | > 100 | C[C@@H]1COCCN1c1nc2c(c(-c3ccc(NC(=O)NC4CC4)cc3)n1)CNC2 [Example 26, (R)-1-cyclopropyl-3-(4-(2-(3-methylmorpholino)-6,7-dihydro-5H-pyrrolo[3,4-d]pyrimidin-4-yl)phenyl)urea] |
